Laboratory results: US11332472B2, “Substituted piperidines as inhibitors of ubiquitin specific protease 7” (LES LABORATOIRES SERVIER, priority 2017, dated 2022)

Biological target: T1, USP7 (Homo sapiens, UniProt Q93009, C315A)
T1 construct: 0.25 nM His-His-USP7 (aa208-560, [C315A]) was incubated with compound; His-His (N)
Experiment: Inhibition of USP7 by Fluorescence Intensity (FLINT) readings, Ubiquitin-Rhodamine-110 substrate
Assay type: biochemical
Details: 0.25 nM His-His-USP7 (aa208-560, [C315A]); compound 60 minutes at 30° C.; 500 nM Ubiquitin-Rhodamine substrate; 11-point curves
Procedure: USP7 activity was measured using Rhodamine-110 c-terminal labelled Ubiquitin as a substrate (Viva Biosciences). Incubation with USP7 results in the release of Rhodamine-110 leading to an increase in fluorescence which can be used in the continuous measurement of USP7 activity.
The USP7 reactions were performed in a 50 μL volume, in 384 well black solid low binding plates (Corning #3575). The reaction buffer consisted of 100 mM Bicine pH 8.0, 0.01% TritonX 100, 1 mM TCEP, and 10% DMSO.
0.25 nM His-His-USP7 (aa208-560, [C315A]) was incubated with compound (final concentration 10% DMSO) for 60 minutes at 30° C. The reaction was then initiated by the addition of 500 nM Ubiquitin-Rhodamine-10 substrate and the plate read every 3 minutes for 21 minutes to measure the release of Rhodamine-110. Fluorescence Intensity (FLINT) readings were measured using a Biomek Neo plate reader (Ex. 485 nm. Em. 535 nm).
The inhibition of increasing doses of compound was expressed as a percentage reduction in kinetic rate compared to the kinetic rates established between ‘DMSO only’ and ‘total inhibition’ controls (no USP7). The inhibitory concentrations that gave a 50% reduction in kinetic rate (IC50) were determined, from 11-point dose response curves, in XL-Fit using a 4-Parameter Logistic Model (Sigmoidal Dose-Response Model).

T1 sequence (Q93009 208-560 C315A): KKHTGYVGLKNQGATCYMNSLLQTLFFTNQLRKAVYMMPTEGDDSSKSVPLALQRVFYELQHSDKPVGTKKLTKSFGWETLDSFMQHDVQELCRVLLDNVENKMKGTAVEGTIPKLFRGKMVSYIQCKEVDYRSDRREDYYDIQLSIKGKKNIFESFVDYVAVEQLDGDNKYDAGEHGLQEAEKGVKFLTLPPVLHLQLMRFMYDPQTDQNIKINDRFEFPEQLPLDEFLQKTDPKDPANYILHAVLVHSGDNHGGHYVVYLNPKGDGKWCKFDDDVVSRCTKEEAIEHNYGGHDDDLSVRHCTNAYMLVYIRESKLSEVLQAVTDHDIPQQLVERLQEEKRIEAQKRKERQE

Compound | IC50
COc1ccc(-n2ccc3c(=O)n(CC4(O)CCN(C(=O)C5CCCCN5c5ccccc5)CC4)cnc32)cc1 (centres unmarked) [Example 10, 3-[[4-hydroxy-1-(1-phenylpiperidine-2-carbonyl)-4-piperidyl]methyl]-7-(4-methoxyphenyl)pyrrolo[2,3-d]pyrimidin-4-one] | 425 nM
COc1ccc(-n2ccc3c(=O)n(CC4(O)CCN(C(=O)[C@@H]5C(C)=CCC[C@H]5c5ccsc5)CC4)cnc32)cc1 (single isomer, unassigned) [Example 62, 3-[[4-hydroxy-1-[trans-2-methyl-6-(3-thienyl)cyclohex-2-ene-1-carbonyl]-4-piperidyl]methyl]-7-(4-methoxyphenyl)pyrrolo[2,3-d]pyrimidin-4-one] | 682 nM
COc1ccc(-n2ccc3c(=O)n(CC4(O)CCN(C(=O)[C@@H]5CCCO[C@H]5c5ccccc5)CC4)cnc32)cc1 (single isomer, unassigned) [Example 44, 3-[[4-hydroxy-1-[trans-2-phenyltetrahydropyran-3-carbonyl]-4-piperidyl]methyl]-7-(4-methoxyphenyl)pyrrolo[2,3-d]pyrimidin-4-one] | 2750 nM
Cn1ccc2c(=O)n(CC3(O)CCN(C(=O)[C@@H]4CCCC[C@H]4c4ccsc4)CC3)cnc21 (relative stereo) [Example 2, 3-[[4-hydroxy-1-[trans-2-(3-thienyl)cyclohexanecarbonyl]-4-piperidyl]methyl]-7-methyl-pyrrolo[2,3-d]pyrimidin-4-one] | 439 nM
O=C(CC1CCCO1)Nc1ccc2ncn(CC3(O)CCN(C(=O)[C@@H]4CCCC[C@H]4c4ccccc4)CC3)c(=O)c2n1 (relative stereo) [Example 106, N-[3-[[4-hydroxy-1-(trans-2-phenylcyclohexanecarbonyl)-4-piperidyl]methyl]-4-oxo-pyrido[3,2-d]pyrimidin-6-yl]-2-tetrahydrofuran-2-yl-acetamide] | 100 nM
O=C([C@@H]1CCC(F)(F)C[C@H]1c1ccco1)N1CCC(O)(Cn2cnc3c(-c4ccccc4)scc3c2=O)CC1 (single isomer, unassigned) [Example 86, 3-[[1-[trans-4,4-difluoro-2-(2-furyl)cyclohexanecarbonyl]-4-hydroxy-4-piperidyl]methyl]-7-phenyl-thieno[3,4-d]pyrimidin-4-one] | 125 nM
O=C([C@@H]1CCC(F)(F)C[C@H]1c1ccsc1)N1CCC(O)(Cn2cnc3c(-c4ccccc4)scc3c2=O)CC1 (single isomer, unassigned) [Example 88, 3-[[1-[trans-4,4-difluoro-2-(3-thienyl)cyclohexanecarbonyl]-4-hydroxy-4-piperidyl]methyl]-7-phenyl-thieno[3,4-d]pyrimidin-4-one] | 310 nM
O=C(Cc1c[nH]c2ccc(O)cc12)Nc1ccc2ncn(CC3(O)CCN(C(=O)C4CCCCC4c4ccccc4)CC3)c(=O)c2n1 (stereo not drawn) [Example 105, 2-(5-hydroxy-1H-idol-3-yl)-N-[3-[[4-hydroxy-1-(trans-2-phenylcyclohexanecarbonyl)-4-piperidyl]methyl]-4-oxo-pyrido[3,2-d]pyrimidin-6-yl]acetamide] | 15.3 nM
O=C(C1CCCCC1c1ccc(F)cc1)N1CCC(O)(Cn2cnc3c(ccn3-c3ccccc3)c2=O)CC1 (single isomer, unassigned) [Example 42, 3-[[1-[(trans-2-(4-fluorophenyl)cyclohexanecarbonyl]-4-hydroxy-4-piperidyl]methyl]-7-phenyl-pyrrolo[2,3-d]pyrimidin-4-one] | 1590 nM
COc1ccc(-n2ccc3c(=O)n(CC4(O)CCN(C(=O)[C@@H]5CCC(F)(F)C[C@H]5c5cccs5)CC4)cnc32)cc1 (single isomer, unassigned) [Example 73, 3-[[1-[trans-4,4-difluoro-2-(2-thienyl)cyclohexanecarbonyl]-4-hydroxy-4-piperidyl]methyl]-7-(4-methoxyphenyl)pyrrolo[2,3-d]pyrimidin-4-one] | 83.8 nM
COc1ccc(-n2ccc3c(=O)n(CC4(O)CCN(C(=O)[C@@H]5OCCO[C@@H]5c5ccccc5)CC4)cnc32)cc1 (single isomer, unassigned) [Example 8, 3-[[4-hydroxy-1-[cis-3-phenyl-1,4-dioxane-2-carbonyl]-4-piperidyl]methyl]-7-(4-methoxyphenyl)pyrrolo[2,3-d]pyrimidin-4-one] | 13300 nM
Cc1cc([C@@H]2CC(F)(F)CC[C@H]2C(=O)N2CCC(O)(Cn3cnc4c(-c5ccccc5)scc4c3=O)CC2)cs1 (relative stereo) [Example 90, 3-[[1-[trans-4,4-difluoro-2-(S-methyl-3-thienyl)cyclohexanecarbonyl]-4-hydroxy-4-piperidyl]methyl]-7-phenyl-thieno[3,4-d]pyrimidin-4-one] | 2920 nM
O=C([C@@H]1CCCC[C@H]1c1ccccc1)N1CCC(O)(Cn2cnc3c(ccn3Cc3cccnc3)c2=O)CC1 (relative stereo) [Example 109, 3-[[4-hydroxy-1-(trans-2-phenylcyclohexanecarbonyl)-4-piperidyl]methyl]-7-(3-pyridylmethyl)pyrrolo[2,3-d]pyrimidin-4-one] | 1010 nM
COc1ccc(-n2ccc3c(=O)n(CC4(O)CCN(C(=O)[C@@H]5CCCO[C@H]5c5ccccc5)CC4)cnc32)cc1 (single isomer, unassigned) [Example 45, 3-[[4-hydroxy-1-[trans-2-phenyltetrahydropyran-3-carbonyl]-4-piperidyl]methyl]-7-(4-methoxyphenyl)pyrrolo[2,3-d]pyrimidin-4-one] | 86 nM
COc1ccc(-n2ccc3c(=O)n(CC4(O)CCN(C(=O)[C@@H]5CCCC[C@H]5n5ccnc5)CC4)cnc32)cc1 (single isomer, unassigned) [Example 48, 3-[[4-hydroxy-1-[trans-2-imidazol-1-ylcyclohexanecarbonyl]-4-piperidyl]methyl]-7-(4-methoxyphenyl)pyrrolo[2,3-d]pyrimidin-4-one] | 413 nM
O=C([C@@H]1CCC(F)(F)C[C@H]1c1cnco1)N1CCC(O)(Cn2cnc3c(Cl)scc3c2=O)CC1 (relative stereo) [Example 76, 7-chloro-3-[[1-[trans-4,4-difluoro-2-oxazol-5-yl-cyclohexanecarbonyl]-4-hydroxy-4-piperidyl]methyl]thieno[3,4-d]pyrimidin-4-one] | 6640 nM

Second part, the compound after the results:

IC50 | Compound
685 nM | O=C([C@@H]1CCO[C@H]1c1ccccc1)N1CCC(O)(Cn2cnc3c(ccn3-c3ccccc3)c2=O)CC1 (relative stereo) [Example 46, 3-[[4-hydroxy-1-[trans-2-phenyltetrahydrofuran-3-carbonyl]-4-piperidyl]methyl]-7-phenyl-pyrrolo[2,3-d]pyrimidin-4-one]
4670 nM | COc1ccc(-n2ccc3c(=O)n(CC4(O)CCN(C(=O)[C@@H]5CCC(F)(F)C[C@H]5c5ccccc5)CC4)cnc32)cc1 (single isomer, unassigned) [Example 33, 3-[[1-(trans-4,4-difluoro-2-phenyl-cyclohexanecarbonyl)-4-hydroxy-4-piperidyl]methyl]-7-(4-methoxyphenyl)pyrrolo[2,3-d]pyrimidin-4-one]
28000 nM | O=C([C@@H]1OCCO[C@@H]1c1ccccc1)N1CCC(O)(Cn2cnc3c(ccn3-c3ccccc3)c2=O)CC1 (single isomer, unassigned) [Example 6, 3-[[4-hydroxy-1-[cis-3-phenyl-1,4-dioxane-2-carbonyl]-4-piperidyl]methyl]-7-phenyl-pyrrolo[2,3-d]pyrimidin-4-one]
19400 nM | O=C([C@@H]1OCCO[C@@H]1c1ccccc1)N1CCC(O)(Cn2cnc3c(ccn3-c3ccccc3)c2=O)CC1 (single isomer, unassigned) [Example 5, 3-[[4-hydroxy-1-[cis-3-phenyl-1,4-dioxane-2-carbonyl]-4-piperidyl]methyl]-7-phenyl-pyrrolo[2,3-d]pyrimidin-4-one]
471 nM | Cn1ccc2c(=O)n(CC3(O)CCN(C(=O)[C@@H]4CCC(F)(F)C[C@H]4c4ccccc4)CC3)cnc21 (single isomer, unassigned) [Example 112, 3-[[1-[trans-4,4-difluoro-2-phenyl-cyclohexanecarbonyl]-4-hydroxy-4-piperidyl]methyl]-7-methyl-pyrrolo[2,3-d]pyrimidin-4-one]
162 nM | O=C([C@@H]1CCC(F)(F)C[C@H]1c1cccs1)N1CCC(O)(Cn2cnc3c(ccn3-c3ccccc3)c2=O)CC1 (relative stereo) [Example 71, 3-[[1-[trans-4,4-difluoro-2-(2-thienyl)cyclohexanecarbonyl]-4-hydroxy-4-piperidyl]methyl]-7-phenyl-pyrrolo[2,3-d]pyrimidin-4-one]
13500 nM | O=C([C@@H]1CCC(F)(F)C[C@H]1c1ccccc1)N1CCC(O)(Cn2cnc3c(ccn3-c3ccccc3)c2=O)CC1 (single isomer, unassigned) [Example 35, 3-[[1-[trans-4,4-difluoro-2-phenyl-cyclohexanecarbonyl]-4-hydroxy-4-piperidyl]methyl]-7-phenyl-pyrrolo[2,3-d]pyrimidin-4-one]
